Laboratory results from patent US20080145465A1, “Sesquiterpene lactone extract from artemisia leucodes for reducing inflammation and down-regulating pro-inflammatory gene expression” (priority 2006, published 2008).
“And” between values parts separate entries of the source, which are not always exact repeats. Equal entries are not always repeated.

Experiments:
[1] = tested on: carrageenan-induced rat paw edema; assay: Carrageenan-induced rat paw edema; format: in vivo, Wistar rats; conditions: 200 mg/kg oral gavage, n = 5
Description: Groups of five adult male and female Wistar rats with body weights from 136 to 170 g were used for this study. Rats were housed five animals per cage in a room kept at 24-26° C. and fed ad libitum. Before the experiment began, rat paw sizes were recorded by measuring paw volume three times on each animal using a plethysmometer (Ugo Basile, Comerio VA, Italy). The values were averaged to give a baseline paw size value. To start the experiment, animals were given a subcutaneous injection of 1% carrageenan (100 μl; Sigma, St. Louis, Mo.) in the area of the back paw to induce an acute inflammatory reaction (paw edema). One hour after carrageenan injection, rats were orally gavaged with AL-1, aspirin, or vehicle control (5% ethanol). Paw size was measured at three hours and five hours after injection. The increase in paw edema at each time point was determined by comparison with paw volume measured pre-injection. Inhibition of edema was calculated by comparison with vehicle control at the same time point.

[2] = tested on: cotton pellet infiltrate and granuloma in rats; assay: Cotton granuloma test; format: in vivo; conditions: 200 mg/kg oral
Description: Free access to standard rat chow and water was provided throughout the test. Three sterile cotton pellets (10 mg) were implanted hypodermically into the groin and abdominal area of rats under Nembutal (Sigma, St. Louis, Mo.) narcosis (40 mg/kg intraperitoneally). AL-1, aspirin (Sigma, St. Louis, Mo.), and vehicle control (5% ethanol) were administered by oral gavage one day before implantation, the day of implantation (1 hour before operation), and subsequently for six days after the surgery, once per day. On the seventh day after surgery, rats were euthanized by means of a large dose of Nembutal (70 mg/kg). Cotton pellets were removed and fresh weights were recorded. The cotton pellets were then were placed into an oven (60° C.) for 24 hours and weighed again.

[3] = tested on: nitric oxide (NO) production from RAW macrophages; assay: Griess assay for NO production by LPS-stimulated RAW macrophages; format: cell-based, murine; conditions: at 10 μM; positive control
COX-2 = molecular target: T1, COX-2 (Ovis aries, UniProt P79208); assay: Colorimetric COX inhibitor screening assay, COX-2; format: biochemical, ovine
T1 construct: purchased Cayman Chemical Company
T1 sequence (P79208 17-603): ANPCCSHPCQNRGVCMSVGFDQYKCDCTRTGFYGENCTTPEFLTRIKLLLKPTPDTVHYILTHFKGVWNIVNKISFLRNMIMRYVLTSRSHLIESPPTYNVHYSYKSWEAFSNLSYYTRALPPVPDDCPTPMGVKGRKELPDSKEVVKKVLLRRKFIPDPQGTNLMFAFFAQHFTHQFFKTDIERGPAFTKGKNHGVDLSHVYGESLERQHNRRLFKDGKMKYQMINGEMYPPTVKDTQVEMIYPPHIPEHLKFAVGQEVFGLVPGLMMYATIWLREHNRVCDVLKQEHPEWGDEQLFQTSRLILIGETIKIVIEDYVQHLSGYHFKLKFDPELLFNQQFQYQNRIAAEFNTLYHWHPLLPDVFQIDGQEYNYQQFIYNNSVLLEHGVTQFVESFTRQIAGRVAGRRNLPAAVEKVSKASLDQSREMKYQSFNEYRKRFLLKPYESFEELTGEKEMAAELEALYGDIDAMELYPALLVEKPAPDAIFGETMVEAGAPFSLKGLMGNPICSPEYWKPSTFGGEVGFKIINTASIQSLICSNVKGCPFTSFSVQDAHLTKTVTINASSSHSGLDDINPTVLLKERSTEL
Description: An ovine COX inhibitor screening assay (Cayman Chemical Company, Ann Arbor, Mich.) was used to measure inhibition of purified COX-1 and COX-2. This assay measures the peroxidase component of cyclooxygenases colorimetrically by monitoring the appearance of oxidized N,N,N′,N′-tetramethyl-p-phenylenediamine (TMPD) at 590 nm. Tablets of Vioxx (rofecoxib; Merck & Co., Inc., Whitehouse Station, N.J.) were ground and dissolved in methanol (1 mg/mL) to use as a positive control. AL-1, leukomisin, and austricin were also dissolved in methanol at 1 mg/mL. The assay was performed following manufacturer instructions. Vioxx, vehicle (100% initial activity), or treatments were added to a 96-well plate along with 180 μL assay mixture provided by the manufacturer containing 150 μL assay buffer, 10 μL heme, and 10 μL enzyme (COX-1 or COX-2). A background correction row received no enzyme and 10 μL additional assay buffer. After 5 min incubation at room temp, 20 μL of a colorimetric substrate solution containing TMPD and 20 μL arachadonic acid diluted in assay buffer were added to the plate. The plate was incubated for 5 min and the absorbance was read at 590 nm using a microplate reader (Molecular Devices, Sunnyvale, Calif.). To calculate percent inhibition, average absorbance was calculated for each sample (n=3). The background blank well absorbance was subtracted from each sample.
[(100% Initial activity-Blank)−(Treatment-Blank)/(100% Initial activity-Blank)]*100

CC(=O)Oc1ccccc1C(=O)O [aspirin]
inhibition of paw edema vs vehicle control ([1]; 3 h after carrageenan): 53% and 53 ± 1 % | inhibition of paw edema vs vehicle control ([1]; 5 h after carrageenan): 56% and 56 ± 1 % | reduction of granuloma [2]: 44% | reduction of infiltrate [2]: 34% | granuloma (dry weight of pellet) ([2]; once per day, vehicle control 38 ± 7 mg): 21 ± 3 mg | infiltrate (wet weight of pellet) ([2]; once per day, vehicle control 139 ± 10 mg): 92 ± 12 mg | NO production, % of control [3]: 69 % of control

CS(=O)(=O)c1ccc(C2=C(c3ccccc3)C(=O)OC2)cc1 [Vioxx, rofecoxib]
IC50 (COX-2): 40 µM
